According to US20100210597A1, “C21-Deoxy Ansamycin Derivatives as Antitumor Agents” (priority 2007, published 2010):

Test system: MEXF 394NL
Assay: Monolayer proliferation assay (modified propidium iodide), MEXF 394NL
Format: cell-based, human
Details: average of 2 experiments
Procedure: In vitro evaluation of compounds for anticancer activity in a panel of human tumour cell lines in a monolayer proliferation assay was carried out at the Oncotest Testing Facility, Institute for Experimental Oncology, Oncotest GmbH, Freiburg.
The Oncotest cell lines are established from human tumor xenografts as described by Roth et al., (1999). The origin of the donor xenografts is described by Fiebig et al., (1999). Other cell lines are either obtained from the NCl (DU145, MCF-7) or purchased from DSMZ, Braunschweig, Germany.
All cell lines, unless otherwise specified, are grown at 37° C. in a humidified atmosphere (95% air, 5% CO2) in a ‘ready-mix’ medium containing RPMI 1640 medium, 10% fetal calf serum, and 0.1 mg/mL gentamicin (PAA, Cölbe, Germany).
A modified propidium iodide assay was used to assess the effects of the test compound(s) on the growth of six human tumour cell lines (Dengler et al., (1995)).
Briefly, cells are harvested from exponential phase cultures by trypsinization, counted and plated in 96 well flat-bottomed microtitre plates at a cell density dependent on the cell line (5-10.000 viable cells/well). After 24 h recovery to allow the cells to resume exponential growth, 0.010 mL of culture medium (6 control wells per plate) or culture medium containing macbecin were added to the wells. Each concentration is plated in triplicate. Compounds were applied in two concentrations (0.001 mM and 0.01 mM). Following 4 days of continuous exposure, cell culture medium with or without test compound was replaced by 0.2 mL of an aqueous propidium iodide (P1) solution (7 mg/L). To measure the proportion of living cells, cells were permeabilized by freezing the plates. After thawing the plates, fluorescence was measured using the Cytofluor 4000 microplate reader (excitation 530 nm, emission 620 nm), giving a direct relationship to the total number of viable cells.
Growth inhibition is expressed as treated/control×100 (% T/C).
In vitro evaluation of the test compound, 20, for anticancer activity in a panel of human tumour cell lines in a monolayer proliferation assay was carried out as described in the general methods using a modified propidium iodide assay.

In the case of `CO[C@H]1C[C@H](C)Cc2cc(cc(OP(=O)(O)O)c2)NC(=O)/C(C)=C/CC[C@H](C)[C@@H](OC(N)=O)/C(C)=C/[C@H](C)[C@H]1O` [Compound 20, 4,5-dihydro-11-O-demethyl-15-demethoxy-18,21-didehydro-21-deoxomacbecin-18-phosphate], the “Test/Control (%) at drug concentration (μg/mL)” value (shortened to “Test/Control (%)”) (0.01 μg/mL) is reported as 102%, the “Test/Control (%)” value (0.1 μg/mL) is reported as 50% and the “Test/Control (%)” value (1 μg/mL) is reported as 17%. For the same compound, the “Test/Control (%)” value (10 μg/mL) was 16% and the “Test/Control (%)” value (100 μg/mL) was 3%.
